One data set concerns THP-1 cells. In words: THP-1 cells: VEGF and bFGF mRNA induction. The format is cell-based, human. Conditions: 100 ng/ml for 3 hours (FIG. 9). As for the experimental part: Sense and anti-sense primers for use with the real time RT-PCR, ABI Prism 7700 Sequence Detection System were designed using the PrimerExpress version 1.0 software (PE Applied Biosystems, Inc.). Rat and human specific primer/probe sets included those for GAPDH, bFGF, the VEGF 164 aa or 120 aa rat isoforms, and their respective human homologues (VEGF 165 and VEGF 121). ABI PRISM specific primer/probes were purchased from BioSource International Inc. or PE Applied Biosystems.
RT-PCR was performed on 150 ng for the analysis of VEGF and bFGF mRNA expression. Ten nanograms of total RNA was used for GAPDH niRNA expression. […] Data were analyzed using Sequence Detector v1.6.3 software (Applied Biosystems/PE). […]
Because macrophages are the inflammatory cells predominantly responsible for the angiogenic response that occurs during healing, a monocyte/macrophage cell line shown previously to bind relaxin with high affinity (THP-1) (Parsell et al. (1996) J. Biol. Chem. 271:27936-27941) was tested for relaxin inducibility of VEGF and bFGF. […] In order to determine whether the increase in VEGF mRNA observed following short-term relaxin treatment was reflected by an elevation in secreted VEGF protein, THP-1 cells were treated with relaxin (0.01-100 ng/ml) for 24 h, the conditioned media collected, and VEGF content in the media quantified by ELISA. […]

A short description of data set [1]: Serum rhRLX, quantitative sandwich immunoassay (Example 1). The settings on record: osmotic minipump 4 μg/hour for 5 days, 17 rats, mean±SEM. It is filed as in vivo, rat. As to the method: One milliliter of blood was obtained from the rats administered rhRLX for 5 days at the end of the renal function measurements. The levels of rhRLX in serum were then measured in a quantitative sandwich immunoassay. Unemori et al. (1996) J. Clin. Invest. 98:2739-2745. Briefly, wells of a 96-well microtiter plate (Maxisorp Immunomodules, Nunc, Inc., Naperville, Ill.) were coated overnight with affinity purified anti-rhRLX rabbit polyclonal antibody. Sera were diluted in phosphate buffered saline containing Tween 20, Thimerosal, bovine serum albumin (Sigma Chemical Co., St. Louis, Mo.) and normal goat IgG (Organon Teknika-Cappel, Durham, N.C.), and 100 μl were added to wells in duplicate. […] After an appropriate incubation period at room temperature, the wells were washed again, and 100 μl of a tetramethylbenzidine solution was added to each well. After color development, the reaction was stopped, absorbances at 450/630 nm were measured, and relaxin concentrations in the sera were determined by entering data into a four-parameter logistic curve-fitting program.

Data set [2] deals with human primary umbilical vein, aortic, foreskin, and pulmonary endothelial cells. In words: 3H-thymidine uptake, human endothelial cells. The format is cell-based. The settings on record: serum-free medium. As for the experimental part:
Endothelial cells were derived from explant cultures of human neonatal foreskin and rat aorta. Primary human endothelial cells from umbilical vein, aorta, and lung were purchased from Clonetics-BioWhittaker Corporation (San Diego, Calif.) and cultured according to vendor instructions. ^3H-thymidine uptake was performed, as previously described, in serum-free medium. Unemori et al. (1994) Exp. Cell Res. 21:166-171.
Relaxin was then assayed for the ability to induce proliferation of endothelial cells directly. Relaxin's potential mitogenic effect was tested on human primary umbilical vein, aortic, foreskin, and pulmonary endothelial cells, as well as rat aortic endothelial cells. […] Alterations in other aspects of endothelial cell phenotype that are believed to correlate with angiogenesis were also tested. Relaxin had no effect on collagen expression, judged by SDS-PAGE of ^3H-proline-labeled cellular proteins; or metalloproteinase or tissue inhibitor of metalloproteinase-1 secretion, assessed by gelatin zymography. […] Therefore, relaxin had no apparent effect directly on endothelial cells.

For data set [3], the system named is ovariectomized or sham ovariectomized rats. In words: Chronic infusion of rhRLX on renal function in ovariectomized or sham ovariectomized rats. The format is in vivo, rat. Conditions: day 5 of infusion 4 μg/hour; comparable in ovariectomized and sham ovariectomized rats. The text has this:
The details of the surgical procedures have been previously described. See, e.g., Conrad (1984) Kidney Int. 26:24-29; and Danielson and Conrad (1995) J. Clin. Invest. 96:482-490. […] The bladder catheter, a silastic-covered stainless steel cannula, was sewn into the urinary bladder with a purse-string suture and exteriorized through the ventral abdominal wall. This catheter was then plugged allowing the animal to urinate through the urethra while in her home cage. In the ovariectomized and sham ovariectomized animals, the ovaries were first ligated and then excised, or briefly manipulated, respectively, via a small incision made in the lateral abdominal wall immediately after the insertion of vascular and bladder catheters. All surgeries were conducted using aseptic technique. At least a 7-day recovery period was allowed before experimentation.
Six female rats each were subjected either to ovariectomy or sham ovariectomy immediately after the implantation of vascular and bladder catheters. Seven days later, renal function and MAP were assessed before the insertion of osmotic minipumps containing rhRLX. On day 5 of the relaxin infusion (4 μg/hour), renal function and MAP were again determined.

This is an account of results in patent US6723702B2, “Use of relaxin treat diseases related to vasoconstriction” (RAS Medical, Inc., priority 2000, dated 2004).

“rhRLX: recombinant human relaxin, identical in amino acid sequence to the product of the human H2 gene; A chain of 24, B chain of 29 amino acids”: in the data set with THP-1 cells, the “Transcripts for VEGF” value was “specifically upregulated”. Besides, in data set [1], the “serum concentration of rhRLX” value worked out at 28.1 ± 4.8 ng/mL. Also, the 3H-thymidine uptake result in data set [2] was “did not alter”. In data set [3], the “effect on ERPF” value was “profound rise”, the “effect on ERVR” value was “fall” and the “effect on GFR” value is “profound rise”.
